pIC50: −log10 of the molar value. The source made the active and inactive calls.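 How the source made its calls: active means IC50 below 20 µM; inactive means the rest.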

By pIC50 is commonly meant the IC50 on a negative log10 scale, so that one unit is a factor of ten. For orientation: IC50 means the concentration that gives 50% inhibition.

The target of this test is CRF-binding protein / CRF-R2 receptor complex (human). In words: CRF-BP/CRF-R2 complex antagonists, SAR follow-up, cell-based, 384-well, HEK293, calcium flux, powder samples (AID 651649). The following applies: CRF-induced calcium flux, Fluo4. In general terms: Calcium assays in cells follow changes in intracellular calcium, usually with a dye or a luminescent sensor.
In the case of `NC(=O)c1ccc(NCc2ccco2)c([N+](=O)[O-])c1`, the pIC50 was 5.87. As for `Cc1nc2nc(SCC(=O)c3cccc([N+](=O)[O-])c3)[nH]c2cc1Br`, the IC50 entry is “inactive”.

Turning to `COc1cccc(NC(=S)NC(Cc2ccccc2)c2ccccc2)c1` (stereo not drawn), the pIC50 was 5.98. The same measure, in the same setting: in the case of `CC(C)(C)c1cc(C(=O)NNC(=O)Nc2cccc(Cl)c2)n(Cc2ccccc2)n1` it was 5.60; in that of `COc1cccc2cc(-c3nnc(-c4ccccc4)o3)c(=O)oc12`, over 6.90. On the same count and under the same terms, to `COc1cccc(C2CC(c3cccs3)=NN2C(=O)c2ccco2)c1O` (stereo not drawn) belongs 5.81; to `CCOc1ccc(Cl)cc1S(=O)(=O)n1nnc2ccccc21`, 5.93. The same measure, in the same setting: in the case of `CC(=O)NC(Cc1ccc(C)cc1)C(=O)NC1CCN(c2ncccc2[N+](=O)[O-])CC1` (stereo not drawn) it was 5.56. As to `CC1CC(C)CN(C(=O)CSc2nc(Cc3cccs3)nc3ccccc23)C1` (stereo not drawn), the negative-log IC50 (pIC50) is 5.62. The same measure, in the same setting: to `CC(C)Cn1c(SCC(=O)N2CCc3ccccc3C2)nc2cc(Cl)ccc2c1=O` belongs 6.02; to `C=CCOc1ccc(/C=C2\SC(=S)N(NS(=O)(=O)c3ccccc3)C2=O)cc1`, 5.32; to `O=c1oc2ccc3ccccc3c2cc1-c1nnc(-c2ccccc2)o1`, 6.20. Regarding `COCCNc1nc2c(S(=O)(=O)c3cc(C)ccc3C)nnn2c2ccccc12`, the IC50 is > 40000 nM (inactive). As for `O=C(O)c1ccc(COc2ccccc2C=C2C(=O)c3ccccc3C2=O)cc1`, the pIC50 is 5.34. Regarding `COc1ccc(Oc2ccc(C(F)(F)F)cc2NC(=O)c2ccc(OC)cc2)cc1`, the IC50 is > 40000 nM (inactive). Still for that read-out and setting: to `Cn1c(COc2ccccc2)nnc1SCC(=O)c1cccc([N+](=O)[O-])c1` belongs > 40000 nM (inactive); to `Cc1ccccc1Cn1ccc(NC(=O)c2cc3ncc(Br)cn3n2)n1`, > 40000 nM (inactive). On to `O=C(COc1ccc2ccccc2c1)Nc1cccc(C(=O)Nc2ccccc2C(=O)O)c1`, for which the pIC50 was 5.12. With `Cc1ccc(NC(=O)c2ccccc2NS(=O)(=O)c2ccc(F)cc2)cc1S(=O)(=O)N1CCCCC1`, the IC50 was > 40000 nM (inactive). Turning to `Cc1ccc2cccc(Oc3ncnc4scc(-c5ccccc5)c34)c2n1`, the pIC50 is 5.06. Consider `COc1ccc([N+](=O)[O-])cc1NC(=O)c1ccccc1SC`, for which the negative logarithm of the IC50 (pIC50) was 6.67. The same measure, in the same setting: to `Brc1ccccc1-c1nnc(CSc2nnnn2-c2ccccc2)o1` belongs 6.20.

With `COC(=O)c1ccc(CSc2nc3ccccc3c(=O)n2-c2ccccc2)o1`, the pIC50 was 5.30. Still for that read-out and setting: in the case of `O=C(COc1cc(Cl)ccc1Cl)N1CCNC1=O` it was 5.23; in that of `Cc1ccc(-n2nnnc2SCc2nnc(-c3ccccc3Br)o2)c(C)c1`, 5.22; in that of `Cc1ccc(S(=O)(=O)N(CC(=O)Nc2ccccc2C(=O)O)c2ccc(Cl)cc2)cc1`, 5.49. For the compound `Cc1ccccc1-c1cc2nc(-c3ccc([N+](=O)[O-])cc3)cc(=O)n2[nH]1`, the IC50 was > 40000 nM (inactive).

Regarding `COc1ccc(C(=O)COC(=O)c2cccnc2SC)cc1`, the IC50 is > 20000 nM (inactive).

The values are drawn from PubChem BioAssay AID651649 (Sanford-Burnham Center for Chemical Genomics, 2012).
